Laboratory results from patent publication US7378375B1, “Substituted pyridine herbicides” (Syngenta Crop Protection, Inc., priority 2000, dated 2008).

Columns and labels:
[1] = system: Monocotyledonous and dicotyledonous test plants; assay: Herbicidal action before emergence of the plants (pre-emergence action), greenhouse pot test, 9-level rating after 4 weeks; assay type: in vivo; details: 250 g/ha, rated after 4 weeks, 9-level scale
Outline: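 Compounds applied pre-emergence as a spray (500 l water/ha) of aqueous suspension or emulsion onto soil immediately after sowing mono- and dicot species in pots. Greenhouse-grown; damage rated after 4 weeks on a 9-level scale (1=complete damage, 9=no effect).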

[2] = system: Monocotyledonous and dicotyledonous test plants; assay: Post-emergence herbicidal action, greenhouse pot test, sprayed at the 2- to 3-leaf stage, 9-level rating after 2 to 3 weeks; assay type: in vivo; details: 250 g/ha, rated after 2 to 3 weeks, 9-level scale
Outline: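 Plants grown in standard soil in pots; test substances sprayed at the 2- to 3-leaf stage at optimum dosage (500 l water/ha) as aqueous suspension or emulsion from formulated concentrates. Plants then kept in the greenhouse under optimum conditions; rated after 2 to 3 weeks on a 9-level scale (1=complete damage, 9=no effect).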

Row | SMILES | Pre-emergence action rating, Abutilon [1] | Pre-emergence action rating, Amaranthus [1] | Pre-emergence action rating, Chenop. [1] | Pre-emergence action rating, Digitaria [1] | Pre-emergence action rating, Echino. [1] | Pre-emergence action rating, Panicum [1] | Post-emergence action rating, Abutilon [2] | Post-emergence action rating, Amaranth [2] | Post-emergence action rating, Chenop. [2] | Post-emergence action rating, Digitaria [2] | Post-emergence action rating, Echino. [2] | Post-emergence action rating, Ipopur. [2] | Post-emergence action rating, Panicum [2] | Post-emergence action rating, Xanth. [2]
1 | CCCOCCOCc1nc(C(F)(F)F)ccc1C(=O)C1=C(O)C2CCC(C2)C1=O (stereo not drawn) [A841-B52] | 1 | 1 | 1 | 2 | 1 | 1 | 3 | 1 | 1 | 4 | 4 | 3 | 2 | 3
2 | O=C(C1=C(O)C2CCC(C2)C1=O)c1ccc(C(F)(F)F)nc1COCCOC1CCCCO1 (stereo not drawn) [A842-B52] | 2 | 2 | 1 | 6 | 2 | 1 | 3 | 2 | 1 | 3 | 5 | 3 | 3 | 3
3 | CCCCCCCC(=O)OCc1nc(C(F)(F)F)ccc1C(=O)C1=C(O)C2CCC(C2)C1=O (stereo not drawn) [A843-B52] | 1 | 1 | 1 | 2 | 2 | 1 | 3 | 3 | 1 | 3 | 3 | 6 | 2 | 3
4 | O=C(OCc1nc(C(F)(F)F)ccc1C(=O)C1=C(O)C2CCC(C2)C1=O)c1ccccc1 (stereo not drawn) [A844-B52] | 1 | 1 | 1 | 2 | 2 | 1 | 3 | 3 | 1 | 3 | 4 | 3 | 2 | 3
5 | O=C(C1=C(O)C2CCC(C2)C1=O)c1ccc(C(F)(F)F)nc1COCCOCC(F)(F)F (stereo not drawn) [A845-B52] | 1 | 1 | 1 | 1 | 1 | 1 | 2 | 2 | 1 | 2 | 2 | 2 | 2 | 2
6 | COCCCOCc1nc(C(F)(F)F)ccc1C(=O)C1=C(O)C2CCC(C2)C1=O (stereo not drawn) [A846-B52] | 2 | 1 | 1 | 1 | 1 | 1 | 2 | 2 | 2 | 2 | 2 | 1 | 1 | 2
